Measurements: patent US20260002166A1, “GENETIC ENGINEERING OF MARINE BACTERIA FOR BIOMATERIAL PRODUCTION, PROBIOTIC USE IN AQUACULTURE AND MARINE ENVIRONMENTAL RESTORATION” (San Diego State University (SDSU) Foundation, dba San Diego …, priority 2022, published 2026)
Converted amounts (≈) assume the structure as drawn.

Columns and labels:
[1] = system: phytoplankton; details: [31]; cited from earlier work
[2] = system: two other types of invertebrate larvae; details: two other types of invertebrate larvae [29]; cited from earlier work
[3] = system: Pacific and Atlantic corals; details: synthesized TBP; cited from earlier work
[4] = system: sea urchin; details: [32]; cited from earlier work
[5] = system: Ruegeria pomeroyi DSS-3 (NJS409); experiment: Minimum inhibitory concentration of kanamycin; format: cell-based; details: Ruegeria pomeroyi DSS-3, Wild type
Procedure: (§1) • 1. Streak out marine microbes onto Marine Agar plates and incubate overnight at 25° C.-28° C. Some strains take longer to grow to single colonies. Incubation times longer than 24 hours may be required for some slower growing strains. Monitor growth in future steps accordingly.
(§2) • 2. Inoculate a single colony into 5 mL Marine Broth (2216) media in the late afternoon/early evening. Incubate overnight at 25 C, shaking at 200 rpm.
(§3) • 3. Measure optical density (OD600) of overnight culture growth and document. • 4. Pipette 100 μL of overnight culture from each strain onto Marine Agar plates containing either Strep (for background resistance), Kan (MIC), Gent (MIC) at each concentration (25 μg/mL, 50 μg/mL, 100 μg/mL and 200 μg/mL). • 5. Use beads or plate spreader to spread the culture evenly on the plate. Remove the beads and incubate overnight at 25° C. overnight.
(§4) • 6. Observe and document growth on all concentration plates. For the MICs (Kan/Gent) identify the lowest concentration of media in which no colonies are observed. If there are no colonies at any concentration, screen lower concentrations of Kanamycin/Gentamicin in the media (i.e. 5, 10, 15, 20 μg/mL). • 7. For the Streptomycin Resistant strain, select a single colony from the highest dose of Streptomycin that has growth and streak it out onto a plate containing the same concentration and a plate containing the next highest concentration of antibiotics. Incubate overnight at 25 C.
(§5) • 8. Observe and document growth on both the MIC plates (2 days old) and the Streptomycin resistance plates. If Streptomycin resistance is sustained at less than 200 μg/mL, then continue step 7, passaging the strains onto higher concentrations of antibiotics. Once robust growth occurs at 200 μg/mL, inoculate a single colony into 5 mL Marine Broth containing Strep 200 μg/mL and incubate 25° C. overnight, shaking at 200 rpm.

[6] = system: Cobetia sp. MMG (NJS775); experiment: Minimum inhibitory concentration of kanamycin; format: cell-based; details: Wild type
Procedure: as §1, §2, §3, §4, §5

[7] = system: Shimia sp. MMG (NJS302); experiment: Minimum inhibitory concentration of kanamycin; format: cell-based; details: Wild type
Procedure: as §1, §2, §3, §4, §5

[8] = system: Pseudoalteromonas luteoviolacea HI1 (NJS005, StrR); experiment: Minimum inhibitory concentration of kanamycin; format: cell-based; details: read-out: MIC Kan
Procedure: as §1, §2, §3, §4, §5

[9] = system: Endozoicomonas montiporae CL-33 (NJS662); experiment: Minimum inhibitory concentration of kanamycin; format: cell-based; details: Endozoicomonas montiporae CL-33, Wild type
Procedure: as §1, §2, §3, §4, §5

[10] = system: Photobacterium mandapamensis svers.3.2 (MT002); experiment: Minimum inhibitory concentration of kanamycin; format: cell-based; details: Photobacterium leiognathi, Photobacterium mandapamensis svers.3.2, Wild type
Procedure: as §1, §2, §3, §4, §5

[11] = system: Leisingera sp. 204H (NJS204, Wild type); experiment: Minimum inhibitory concentration of kanamycin; format: cell-based
Procedure: as §1, §2, §3, §4, §5

[12] = system: Vibrio harveyi (NJS675, StrR); experiment: Minimum inhibitory concentration of kanamycin; format: cell-based; details: read-out: MIC Kan
Procedure: as §1, §2, §3, §4, §5

[13] = system: Phaeobacter sp. HS012 (NJS491); experiment: Minimum inhibitory concentration of kanamycin; format: cell-based; details: Phaeobacter sp. HS012, Wild type
Procedure: as §1, §2, §3, §4, §5

[14] = system: Nereida sp. MMG025 (NJS678); experiment: Minimum inhibitory concentration of kanamycin; format: cell-based; details: Nereida sp. MMG025, Wild type
Procedure: as §1, §2, §3, §4, §5

[15] = system: Phaeobacter gallaeciensis ATCC 700781 (DSM 26640) (NJS408, Wild type); experiment: Minimum inhibitory concentration of kanamycin; format: cell-based; details: Phaeobacter gallaeciensis ATCC 700781, Wild type
Procedure: as §1, §2, §3, §4, §5

[16] = system: Pseudoalteromonas sp. PS5 (NJS597, StrR); experiment: Minimum inhibitory concentration of kanamycin; format: cell-based; details: read-out: MIC Kan
Procedure: as §1, §2, §3, §4, §5

| SMILES | Phytoplankton mortality [1] | Metamorphosis in other invertebrate larvae [2] | Induction of coral metamorphosis [3] | Sea urchin development [4] | MIC [5] | MIC [6] | MIC [7] | MIC [8] | MIC [9] | MIC [10] | MIC [11] | MIC [12] | MIC [13] | MIC [14] | MIC [15] | MIC [16] |
| --- | --- | --- | --- | --- | --- | --- | --- | --- | --- | --- | --- | --- | --- | --- | --- | --- |
| Brc1[nH]c(Br)c(Br)c1Br [TBP, tetrabromopyrrole] | elicits phytoplankton mortality | not eliciting robust metamorphosis | induce robust metamorphosis | halts sea urchin development | – | – | – | – | – | – | – | – | – | – | – | – |
| NC[C@H]1O[C@H](O[C@H]2[C@H](O)[C@@H](O[C@H]3O[C@H](CO)[C@@H](O)[C@H](N)[C@H]3O)[C@H](N)C[C@@H]2N)[C@H](O)[C@@H](O)[C@@H]1O [Kan, kanamycin] | – | – | – | – | 300 µg/mL (≈ 619 µM) | 200 µg/mL (≈ 413 µM) | 300 µg/mL (≈ 619 µM) | 200 µg/mL (≈ 413 µM) | 100 µg/mL (≈ 206 µM) | 400 µg/mL (≈ 826 µM) | 200 µg/mL (≈ 413 µM) | 200 µg/mL (≈ 413 µM) | 300 µg/mL (≈ 619 µM) | 200 µg/mL (≈ 413 µM) | 300 µg/mL (≈ 619 µM) | 200 µg/mL (≈ 413 µM) |
